Laboratory results taken from PubChem BioAssay AID1918938 (Molecular Pharmacology Branch, DTP, NCI, 2023).

Tested on: 556581-035-R-J1-PDC complex spheroid viability
Experiment: Anticancer human tumor 556581-035-R-J1-PDC patient-derived ovarian carcinoma cell line growth inhibition
Details: for IC50: curve of first compound; for viability, T/C: stronger effect = lower value
Summary of the method: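 Multicellular complex spheroids of tumor cells with human endothelial cells (HUVEC) and mesenchymal stem cells; the LSD1 inhibitor iadademstat was combined with standard-of-care or investigational agents. Top concentration at or near clinical Cmax, half-log dilutions; final DMSO ≤0.25%.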

[1] = second compound 0.1 µM, first compound 0.000316 µM
[2] = second compound 0.1 µM, first compound 0.001 µM
[3] = second compound 0.1 µM, first compound 0.00316 µM
[4] = second compound 0.1 µM, first compound 0.01 µM
[5] = second compound 0.1 µM, first compound 0.0316 µM
[6] = second compound 0.1 µM, first compound 0.1 µM
[7] = second compound 0.316 µM, first compound 0.000316 µM
[8] = second compound 0.316 µM, first compound 0.001 µM
[9] = second compound 0.316 µM, first compound 0.00316 µM
[10] = second compound 0.316 µM, first compound 0.01 µM
[11] = second compound 0.316 µM, first compound 0.0316 µM
[12] = second compound 0.316 µM, first compound 0.1 µM
[13] = second compound 1 µM, first compound 0.000316 µM
[14] = second compound 1 µM, first compound 0.001 µM
[15] = second compound 1 µM, first compound 0.00316 µM
[16] = second compound 1 µM, first compound 0.01 µM
[17] = second compound 1 µM, first compound 0.0316 µM
[18] = second compound 1 µM, first compound 0.1 µM
[19] = second compound 3.16 µM, first compound 0.000316 µM
[20] = second compound 3.16 µM, first compound 0.001 µM
[21] = second compound 3.16 µM, first compound 0.00316 µM
[22] = second compound 3.16 µM, first compound 0.01 µM
[23] = second compound 3.16 µM, first compound 0.0316 µM
[24] = second compound 3.16 µM, first compound 0.1 µM
[25] = second compound 10 µM, first compound 0.000316 µM
[26] = second compound 10 µM, first compound 0.001 µM
[27] = second compound 10 µM, first compound 0.00316 µM
[28] = second compound 10 µM, first compound 0.01 µM
[29] = second compound 10 µM, first compound 0.0316 µM
[30] = second compound 10 µM, first compound 0.1 µM
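Also: spheroids exposed to agents for seven days.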
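For viability, T/C in this document: 100% = DMSO vehicle control wells.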

CC(C)CC(NC(=O)C(Cc1ccccc1)NC(=O)c1cnccn1)B(O)O (stereo not given) + NC1CC1c1ccc(-c2cccc(O)c2)cc1
IC50 (second compound 0.1 µM): < 0.316 nM | IC50 (second compound 0.316 µM): < 0.316 nM | IC50 (second compound 1 µM): < 0.316 nM | IC50 (second compound 3.16 µM): < 0.316 nM | IC50 (second compound 10 µM): < 0.316 nM | viability, T/C [1]: 1.61% | viability, T/C [2]: 0.66% | viability, T/C [3]: 0.12% | viability, T/C [4]: 0.19% | viability, T/C [5]: 0.14% | viability, T/C [6]: 0.26% | viability, T/C [7]: 3.63% | viability, T/C [8]: 0.1% | viability, T/C [9]: 0.35% | viability, T/C [10]: 0.1% | viability, T/C [11]: 0.09% | viability, T/C [12]: 0.17% | viability, T/C [13]: 1.67% | viability, T/C [14]: 0.11% | viability, T/C [15]: 0.08% | viability, T/C [16]: 0.1% | viability, T/C [17]: 0.1% | viability, T/C [18]: 0.2% | viability, T/C [19]: 1.12% | viability, T/C [20]: 0.11% | viability, T/C [21]: 0.11% | viability, T/C [22]: 0.08% | viability, T/C [23]: 0.09% | viability, T/C [24]: 0.31% | viability, T/C [25]: 1.94% | viability, T/C [26]: 0.27% | viability, T/C [27]: 0.22% | viability, T/C [28]: 5.89% | viability, T/C [29]: 0.35% | viability, T/C [30]: 0.86%

CC(C)CC(NC(=O)CNC(=O)c1cc(Cl)ccc1Cl)B1OC(=O)CC(CC(=O)O)(C(=O)O)O1 (stereo not given) + NC1CC1c1ccc(-c2cccc(O)c2)cc1
IC50 (second compound 0.1 µM): 2.44 nM | IC50 (second compound 0.316 µM): 2.84 nM | IC50 (second compound 1 µM): 2.78 nM | IC50 (second compound 3.16 µM): 2.67 nM | IC50 (second compound 10 µM): 2.73 nM | viability, T/C [1]: 85.1% | viability, T/C [2]: 95.6% | viability, T/C [3]: 38.2% | viability, T/C [4]: 2.07% | viability, T/C [5]: 0.71% | viability, T/C [6]: 0.3% | viability, T/C [7]: 85.4% | viability, T/C [8]: 96% | viability, T/C [9]: 45.8% | viability, T/C [10]: 1.79% | viability, T/C [11]: 1.03% | viability, T/C [12]: 0.98% | viability, T/C [13]: 91% | viability, T/C [14]: 95% | viability, T/C [15]: 44.5% | viability, T/C [16]: 0.78% | viability, T/C [17]: 0.36% | viability, T/C [18]: 0.22% | viability, T/C [19]: 82.8% | viability, T/C [20]: 85% | viability, T/C [21]: 44.1% | viability, T/C [22]: 0.89% | viability, T/C [23]: 0.65% | viability, T/C [24]: 0.31% | viability, T/C [25]: 85.4% | viability, T/C [26]: 74.8% | viability, T/C [27]: 47.1% | viability, T/C [28]: 3.21% | viability, T/C [29]: 0.15% | viability, T/C [30]: 1.14%

COc1cc(Nc2ncc3c(n2)-c2ccc(Cl)cc2C(c2c(F)cccc2OC)=NC3)ccc1C(=O)O + NC1CC1c1ccc(-c2cccc(O)c2)cc1
IC50 (second compound 0.1 µM): 42.2 nM | IC50 (second compound 0.316 µM): 27.5 nM | IC50 (second compound 1 µM): 50.5 nM | IC50 (second compound 3.16 µM): 440 nM | IC50 (second compound 10 µM): > 1000 nM | viability, T/C [3]: 57.3% | viability, T/C [4]: 51.5% | viability, T/C [5]: 53.3% | viability, T/C [6]: 44.6% | viability, T/C (second compound 0.1 µM, first compound 0.316 µM): 45.7% | viability, T/C (second compound 0.1 µM, first compound 1 µM): 37.3% | viability, T/C [9]: 57.6% | viability, T/C [10]: 56.5% | viability, T/C [11]: 51.2% | viability, T/C [12]: 43.1% | viability, T/C (second compound 0.316 µM, first compound 0.316 µM): 37.4% | viability, T/C (second compound 0.316 µM, first compound 1 µM): 37.8% | viability, T/C [15]: 50.5% | viability, T/C [16]: 49% | viability, T/C [17]: 59.7% | viability, T/C [18]: 42.9% | viability, T/C (second compound 1 µM, first compound 0.316 µM): 46.4% | viability, T/C (second compound 1 µM, first compound 1 µM): 37.9% | viability, T/C [21]: 58.3% | viability, T/C [22]: 57.4% | viability, T/C [23]: 60.4% | viability, T/C [24]: 49.7% | viability, T/C (second compound 3.16 µM, first compound 0.316 µM): 56% | viability, T/C (second compound 3.16 µM, first compound 1 µM): 42.5% | viability, T/C [27]: 73.8% | viability, T/C [28]: 60.5% | viability, T/C [29]: 59.7% | viability, T/C [30]: 55.5% | viability, T/C (second compound 10 µM, first compound 0.316 µM): 52% | viability, T/C (second compound 10 µM, first compound 1 µM): 50.2%

O=C(C=Cc1cccc(S(=O)(=O)Nc2ccccc2)c1)NO + NC1CC1c1ccc(-c2cccc(O)c2)cc1
IC50 (second compound 0.1 µM): 65.8 nM | IC50 (second compound 0.316 µM): 70.7 nM | IC50 (second compound 1 µM): 69.2 nM | IC50 (second compound 3.16 µM): 66.5 nM | IC50 (second compound 10 µM): 63.6 nM | viability, T/C (second compound 0.1 µM, first compound 0.00949 µM): 85.4% | viability, T/C (second compound 0.1 µM, first compound 0.03 µM): 75.1% | viability, T/C (second compound 0.1 µM, first compound 0.0949 µM): 36.9% | viability, T/C (second compound 0.1 µM, first compound 0.3 µM): 14.6% | viability, T/C (second compound 0.1 µM, first compound 0.949 µM): 1.81% | viability, T/C (second compound 0.1 µM, first compound 3 µM): 0.79% | viability, T/C (second compound 0.316 µM, first compound 0.00949 µM): 78.8% | viability, T/C (second compound 0.316 µM, first compound 0.03 µM): 69.1% | viability, T/C (second compound 0.316 µM, first compound 0.0949 µM): 43.9% | viability, T/C (second compound 0.316 µM, first compound 0.3 µM): 8.31% | viability, T/C (second compound 0.316 µM, first compound 0.949 µM): 0.59% | viability, T/C (second compound 0.316 µM, first compound 3 µM): 0.61% | viability, T/C (second compound 1 µM, first compound 0.00949 µM): 79.5% | viability, T/C (second compound 1 µM, first compound 0.03 µM): 72.9% | viability, T/C (second compound 1 µM, first compound 0.0949 µM): 40.6% | viability, T/C (second compound 1 µM, first compound 0.3 µM): 13.6% | viability, T/C (second compound 1 µM, first compound 0.949 µM): 0.92% | viability, T/C (second compound 1 µM, first compound 3 µM): 0.19% | viability, T/C (second compound 3.16 µM, first compound 0.00949 µM): 82.8% | viability, T/C (second compound 3.16 µM, first compound 0.03 µM): 74.1% | viability, T/C (second compound 3.16 µM, first compound 0.0949 µM): 37.5% | viability, T/C (second compound 3.16 µM, first compound 0.3 µM): 16.5% | viability, T/C (second compound 3.16 µM, first compound 0.949 µM): 0.75% | viability, T/C (second compound 3.16 µM, first compound 3 µM): 1.27% | viability, T/C (second compound 10 µM, first compound 0.00949 µM): 74% | viability, T/C (second compound 10 µM, first compound 0.03 µM): 65.2% | viability, T/C (second compound 10 µM, first compound 0.0949 µM): 41.4% | viability, T/C (second compound 10 µM, first compound 0.3 µM): 17.4% | viability, T/C (second compound 10 µM, first compound 0.949 µM): 0.56% | viability, T/C (second compound 10 µM, first compound 3 µM): 1.22%
